Columns and labels:
[1] = test system: Candida albicans (ATCC 36082); experiment: Solid-phase antimicrobial assay of kinocidins; format: cell-based; conditions: C. albicans; pH 5.5 or 7.5, not separated; 0.5 nmol/well
Description: (§1) Peptides (0.5 nmol) were introduced into wells in agarose plates buffered with MES (2.0 mM, pH 5.5) or PIPES (10.0 mM, pH 7.5). Antimicrobial activity was assessed as the zone of complete (blue) or partial (red) inhibition around the well. Abbreviations are: Native IL-8 (IL-8); IL-8α, (α); IL-8γ, (γ); IL-8α+IL-8γ (α+γ); RANTES, (RAN); GRO-α, (GRO); MCP-1, (MCP); lymphotactin, (LYM); platelet factor-4, (PF-4); and HNP-1, (HNP). Histograms are means±SEM (minimum n=2).
(§2) Briefly, the antimicrobial assays were performed against a panel of prototype human pathogens as previously detailed (Yoshimura, T., Matsushima, K., Tanaka, S., Robinson, E. A., Appella, E., Oppenheim, J. J. & Leonard, E. J. (1987) Proc Natl Acad Sci USA 84, 9233-7): Staphylococcus aureus (ATCC 27217; Gram-positive bacterium); Salmonella typhimurium (5996s; Gram-negative bacterium); and the fungus Candida albicans (ATCC 36082). Defensin HNP-1 was included in each assay as an internal control, and all assays were conducted a minimum of two independent times. Results of independent assays were analyzed using Wilcoxon Rank Sum analysis with Bonferroni correction for multiple comparisons.
(§3) For the Solid-Phase Assay, mid-logarithmic phase organisms were prepared, introduced into buffered agarose (PIPES [10 mM, pH 7.5] or MES [2.0 mM, pH 5.5]) to achieve final inocula of 10^6 CFU/ml, and poured into plates. Peptides (0.5 nmol/well [50 nmol/ml]) were added to wells in the seeded matrix, and incubated for 3h at 37° C. Nutrient overlay medium was applied, and assays incubated at 37° C. or 30° C. for bacteria or fungi, respectively. After 24h, zones of inhibition were measured, and results recorded as zones of complete or partial inhibition.

[2] = test system: Salmonella typhimurium (5996s); experiment: Solid-phase antimicrobial assay of kinocidins; format: cell-based; conditions: S. typhimurium (Gram-negative); pH 5.5 or 7.5, not separated; 0.5 nmol/well
Description: as §1, §2, §3

[3] = test system: Staphylococcus aureus (ATCC 27217); experiment: Solid-phase antimicrobial assay of kinocidins; format: cell-based; conditions: S. aureus (Gram-positive); pH 5.5 or 7.5, not separated; 0.5 nmol/well
Description: as §1, §2, §3

[4] = test system: C. albicans ATCC 36082; experiment: Solution-phase microbicidal assay; format: cell-based, Candida albicans
Description: One million CFU of the indicated microorganism per milliliter were incubated with peptide (0.00125-20.0 nmol/ml) in either MES (2.0 mM, pH 5.5) or PIPES (10.0 mM, pH 7.5) for one hour at 37° C. Surviving CFU were enumerated and are described as change in the initial log 10 CFU. ∘, S. aureus ATCC 27217; ●, S. typhimurium strain 5990s; □, C. albicans ATCC 36082. Data are means±SD (minimum n=2).
as §2
To characterize IL-8's antimicrobial activity in more detail, a quantitative solution-phase assay was carried out at pH 5.5 and 7.5. Organisms were prepared and adjusted to 10^6 CFU/ml in PIPES or MES buffer as above but lacking agarose, and dispensed (5×10^4 CFU per 50 μl aliquot). Peptide (concentration range, 20-0.00125 nmol/ml) was introduced into the assay medium, and incubated for 1 hour at 37° C. After incubation, media were serially diluted and plated in triplicate for enumeration. […] IL-8 was also fungicidal for C. albicans at pH 7.5, with a 2-log reduction in surviving CFU over 1 hour at a concentration of 2.5 nmol/ml.

[5] = test system: Escherichia coli strain ML-35; experiment: Ex vivo biomatrix assay in human whole blood, plasma and serum; format: cell-based
From the text: FIG. 18A-B show antimicrobial efficacy of IL-8α in human blood and blood-derived matrices as compared with artificial media (MHB) at pH 5.5 and 7.2. […] The E. coli inocula (INOC) were 10^5 CFU/ml, and the threshold of sensitivity was considered 0.3 log 10 CFU/ml.
To assess the physiological relevance of the observed in vitro (solid and solution-phase) antimicrobial activity for IL-8 and IL-8α, we assessed the efficacy of IL-8α in the ex vivo biomatrix assay. This assay has been developed to assess antimicrobial polypeptide efficacy in complex human blood matrices. Antimicrobial activity of IL-8α in human whole blood and homologous plasma and serum fractions was assessed (Yeaman, M. R., Gank, K. D., Bayer, A. S., and Brass, E. P. (2002) Antimicrob Agents Chemother 46, 3883-3891). For biomatrix studies, the well-characterized Escherichia coli strain ML-35 was used as the target organism (Lehrer, R. I., Barton, A., Daher, K, A., Harwig, S. S., Ganz, T., and Selsted, M. E. (1989) J Clin Invest 84, 553-561). This strain is resistant to serum, ideal for use in assessing peptide antimicrobial activity in blood and blood-derived matrices (Yeaman, M. R., Gank, K. D., Bayer, A. S., and Brass, E. P. (2002) Antimicrob Agents Chemother 46, 3883-3891). Organisms were cultured to mid-logarithmic phase in brain-heart infusion broth (Difco Laboratories, Detroit, Mich.) at 37° C., washed, and resuspended in PBS (Irvine Scientific; pH 7.2). Inocula were quantified spectrophotometrically and validated by quantitative culture. Biomatrices were distributed in 85-l aliquots into 96-well microtiter plates (Corning Glass Works, Corning, N.Y.) Peptide (5l; concentration range 1.0-50.0 μg/ml) was added either simultaneously with the microorganism (10 μl; 10^5 CFU/ml), or after a 120 min pre-incubation period in the biomatrix. The mixtures were incubated with constant agitation for 2 h at 37° C. After incubation, aliquots were diluted and quantitatively cultured in triplicate onto blood agar. Surviving organisms were enumerated as CFU/ml. […]

KENWVQRVVEKFLKRAENS [IL-8α, synthetic α-helix domain of IL-8 (CXCL8)]
antifungal activity (zone of inhibition) [1]: virtually indistinguishable from that of the native molecule | antimicrobial activity (zone of inhibition) [2]: virtually indistinguishable from that of the native molecule | antimicrobial activity (zone of inhibition) [3]: virtually indistinguishable from that of the native molecule | activity relative to native IL-8, by mass ([4]; C. albicans, solution-phase): 10 fold | reduction in surviving C. albicans ([4]; pH 5.5, 0.125 nmol/ml (1.0 μg/ml), 1 hour exposure): five | decrease in E. coli CFU ([5]; 10 μg/ml peptide, human blood and blood-derived matrices, 2 h at 37° C.): ≤ 5 log CFU/ml | antimicrobial efficacy in biomatrix ([5]; plasma fractions or after 2 hour preincubation): less activity | antimicrobial efficacy in biomatrix ([5]; whole blood and serum, co-incubation): Greatest efficacy

Reference: patent US10329336B2, “Antimicrobial kinocidin compositions and methods of use” (LA Biomedical Research Institute at Harbor-UCLA Medical …, priority 2006, dated 2019)
